Experiments:
Glucocorticoid receptor [1] = molecular target: T1, Glucocorticoid receptor (Homo sapiens, UniProt P04150)
T1 sequence (P04150 whole entry): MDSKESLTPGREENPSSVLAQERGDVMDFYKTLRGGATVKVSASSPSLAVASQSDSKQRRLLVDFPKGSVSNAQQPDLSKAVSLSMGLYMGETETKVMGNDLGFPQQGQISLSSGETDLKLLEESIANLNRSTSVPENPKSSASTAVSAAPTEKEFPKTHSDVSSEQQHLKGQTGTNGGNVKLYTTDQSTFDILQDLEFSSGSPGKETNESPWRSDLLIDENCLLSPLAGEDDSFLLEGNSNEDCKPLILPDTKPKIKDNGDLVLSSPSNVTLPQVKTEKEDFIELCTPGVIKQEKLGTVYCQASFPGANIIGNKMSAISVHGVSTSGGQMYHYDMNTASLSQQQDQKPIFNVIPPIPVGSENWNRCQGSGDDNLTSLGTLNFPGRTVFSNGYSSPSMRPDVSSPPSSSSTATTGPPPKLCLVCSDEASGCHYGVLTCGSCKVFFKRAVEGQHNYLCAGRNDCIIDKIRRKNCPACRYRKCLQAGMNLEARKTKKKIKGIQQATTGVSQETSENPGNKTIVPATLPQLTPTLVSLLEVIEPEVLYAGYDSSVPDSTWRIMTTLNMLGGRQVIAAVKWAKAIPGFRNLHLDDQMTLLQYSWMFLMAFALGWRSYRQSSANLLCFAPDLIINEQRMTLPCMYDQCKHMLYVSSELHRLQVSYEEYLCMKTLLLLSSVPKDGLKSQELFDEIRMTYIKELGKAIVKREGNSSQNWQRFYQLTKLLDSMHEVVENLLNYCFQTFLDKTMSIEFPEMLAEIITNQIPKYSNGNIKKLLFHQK
Description: Agonist activity at glucocorticoid receptor in human PBMC assessed as inhibition of LPS-stimulated TNF-alpha release

Glucocorticoid receptor [2] = molecular target: T1, Glucocorticoid receptor; remark: listed apart in the source
Description: Agonist activity at glucocorticoid receptor in human Chago K1 cells assessed as gene transrepression by Lac-Z reporter gene assay

[3] = Lipophilicity, log D of the compound at pH 7.4; assay type: physicochemical; details: buffer
Glucocorticoid receptor [4] = molecular target: T1, Glucocorticoid receptor; remark: listed apart in the source
Description: Binding affinity to human glucocorticoid receptor by fluorescence polarization assay

Rattus norvegicus [5] = test: Antiinflammatory activity in rat assessed as inhibition of LPS-induced leukocyte influx to broncho-alveolar lavage fluid at 30 ug/kg, administered intratracheally 2 hrs prior to LPS challenge measured after 4 hrs relative to control; assay type: functional; details: inhaled or nasal
Rattus norvegicus [6] = test: Antiinflammatory activity in rat assessed as inhibition of LPS-induced leukocyte influx to broncho-alveolar lavage fluid at 100 ug/kg, administered intratracheally 2 hrs prior to LPS challenge measured after 4 hrs relative to control; assay type: functional; details: inhaled or nasal
Rattus norvegicus [7] = test: Antiinflammatory activity in rat assessed as inhibition of LPS-induced leukocyte influx to broncho-alveolar lavage fluid at 10 ug/kg, administered intratracheally 2 hrs prior to LPS challenge measured after 4 hrs relative to control; assay type: functional; details: inhaled or nasal
Rattus norvegicus [8] = test: Antiinflammatory activity in rat assessed as inhibition of LPS-induced lung edema at 100 ug/kg, administered intratracheally 2 hrs prior to LPS challenge measured after 4 hrs relative to control; assay type: functional; details: inhaled or nasal
Rattus norvegicus [9] = test: Antiinflammatory activity in rat assessed as inhibition of LPS-induced lung edema at 30 ug/kg, administered intratracheally 2 hrs prior to LPS challenge measured after 4 hrs relative to control; assay type: functional; details: inhaled or nasal
Rattus norvegicus [10] = test: Antiinflammatory activity in rat assessed as inhibition of LPS-induced lung edema at 10 ug/kg, administered intratracheally 2 hrs prior to LPS challenge measured after 4 hrs relative to control; assay type: functional; details: inhaled or nasal
Mus musculus = test: Antiinflammatory activity in mouse acute cigarette smoke model assessed as inhibition of neutrophil influx to broncho-alveolar lavage fluid at 30 ug/kg, administered intratracheally 30 mins prior to first cigarette smoke challenge every day for 4 days measured after 24 hrs post last cigarette smoke challenge relative to control; details: inhaled or nasal

Row | SMILES | IC50 (Glucocorticoid receptor [1]) [µM] | IC50 (Glucocorticoid receptor [2]) [µM] | IC50 (Glucocorticoid receptor [4]) [µM] | other results
1 | Cc1nn(C2CCCC2)c(C)c1S(=O)(=O)N[C@@H](C)CNc1cccc2c1cnn2-c1ccc(C#N)cc1 | 0.013 | 0.016 |  | 
2 | Cc1ccc(-n2ncc3c(NC[C@H](C)NS(=O)(=O)c4c(C)cc(C)cc4C)cccc32)cc1 | 0.012 | 0.0045 |  | 
3 | COc1cccc(-n2ncc3c(NC[C@H](C)NS(=O)(=O)c4c(C)cc(C)cc4C)cccc32)c1 |  | 0.041 |  | 
4 | Cc1cc(C)c(S(=O)(=O)N[C@@H](C)CNc2cccc3c2cnn3-c2cncnc2)c(C)c1 | 0.0081 | 0.0069 | 0.0053 | 
5 | C[C@@H](COc1cccc2ncccc12)NS(=O)(=O)c1ccccc1C#N |  |  | > 10 | 
6 | C[C@@H](COc1cccc2ncccc12)NS(=O)(=O)c1cccc(C#N)c1 |  |  | 1.8 | 
7 | C[C@@H](COc1cccc2ncccc12)NS(=O)(=O)c1ccccc1 |  |  | > 10 | 
8 | Cc1cccc(-n2ncc3c(NC[C@H](C)NS(=O)(=O)c4c(C)cc(C)cc4C)cccc32)c1 | 0.0088 | 0.0066 |  | 
9 | Cc1cc(C)c(S(=O)(=O)NC(COc2cccc3c2cnn3-c2ccc(F)cc2)C(F)(F)F)c(C)c1 (racemic) | 0.036 | 0.014 | 0.0038 | 
10 | Cc1nn(C2CCCC2)c(C)c1S(=O)(=O)N[C@@H](C)CNc1cccc2c1cnn2-c1cncnc1 |  | 0.043 |  | 
11 | Cc1cc(C)c(S(=O)(=O)NC(C)CSc2cccc3c2cnn3-c2ccc(F)cc2)c(C)c1 (racemic) |  |  | 0.0077 | 
12 | COc1ccccc1S(=O)(=O)N[C@@H](C)COc1cccc2ncccc12 |  |  | > 10 | 
13 | Cc1cc(C)c(S(=O)(=O)N[C@@H](C)CNc2cccc3c2cnn3-c2ccc(F)c(C)c2)c(C)c1 | 0.023 | 0.014 | 0.0041 | 
14 | Cc1cc(C)c(S(=O)(=O)N[C@@H](C)CCc2cccc3c2cnn3-c2ccc(F)cc2)c(C)c1 | 0.012 | 0.023 |  | 
15 | Cc1cc(C)c(S(=O)(=O)N[C@@H](C)CNc2cccc3c2cnn3-c2ccccc2)c(C)c1 | 0.0016 | 0.0015 |  | 
16 | Cc1cc(C)c(S(=O)(=O)N[C@@H](C)CNc2cccc3c2cnn3-c2ccc(Cl)cc2)c(C)c1 | 0.013 | 0.0037 | 0.0034 | 
17 | Cc1cc(C)c(S(=O)(=O)N[C@@H](C)CNc2cccc3c2cnn3-c2cccc(F)c2)c(C)c1 | 0.028 | 0.0061 |  | 
18 | CCC(=O)O[C@]1(C(=O)SCF)[C@H](C)C[C@H]2[C@@H]3C[C@H](F)C4=CC(=O)C=C[C@]4(C)[C@@]3(F)[C@@H](O)C[C@@]21C [FLUTICASONE PROPIONATE] |  |  |  | inhibition in vivo at 0.03 mg/kg (Rattus norvegicus [5]): 92%; inhibition in vivo at 0.1 mg/kg (Rattus norvegicus [6]): 94%; inhibition in vivo at 0.01 mg/kg (Rattus norvegicus [7]): 84%; inhibition in vivo at 0.1 mg/kg (Rattus norvegicus [8]): 116%; inhibition in vivo at 0.03 mg/kg (Rattus norvegicus [9]): 78%; inhibition in vivo at 0.01 mg/kg (Rattus norvegicus [10]): 64%; inhibition in vivo at 0.03 mg/kg (Mus musculus): 0%
19 | C[C@@H](COc1cccc2ncccc12)NS(=O)(=O)c1c(Cl)cc(Cl)cc1Cl |  | 2.4 | 0.08 | 
20 | Cc1cc(C)c(S(=O)(=O)N[C@H](CNc2cccc3c2cnn3-c2ccc(F)cc2)C(C)C)c(C)c1 | 0.0021 | 0.012 | 0.035 | 
21 | Cc1cc(C)c(S(=O)(=O)N[C@@H](C)CNc2cccc3c2cnn3-c2ccc(F)nc2)c(C)c1 | 0.023 |  |  | 
22 | Cc1nn(C2CCCC2)c(C)c1S(=O)(=O)N[C@@H](C)CNc1cccc2c1cnn2-c1ccc(F)cc1 |  | 0.0097 |  | 
23 | Cc1cc(C)c(S(=O)(=O)N[C@@H](C)CCc2ccccc2)c(C)c1 |  |  | 0.055 | 

More lines, main results first:

Row | IC50 (Glucocorticoid receptor [1]) [µM] | IC50 (Glucocorticoid receptor [2]) [µM] | IC50 (Glucocorticoid receptor [4]) [µM] | SMILES | other results
24 |  |  | 0.018 | Cc1cc(C)c(S(=O)(=O)N[C@@H](C)COc2cccc3cnccc23)c(C)c1 | logD [3]: 4.1
25 |  |  | 0.032 | Cc1nn(C2CCCC2)c(C)c1S(=O)(=O)N[C@@H](C)COc1cccc2cnccc12 | logD [3]: 3.5
26 |  |  | 0.085 | Cc1cc(C)c(S(=O)(=O)N[C@@H](C)COc2c(C)cccc2C)c(C)c1 | 
27 |  |  | 10 | Cc1cc(C)c(S(=O)(=O)N[C@@H](C)CNc2ccc3cnccc3c2)c(C)c1 | 
28 |  | 1.8 |  | Cc1cc(C)c(S(=O)(=O)N[C@@H](C)CNc2cccc3ncccc23)c(C)c1 | 
29 |  |  | 1.6 | Cc1ccc(S(=O)(=O)N[C@@H](C)COc2cccc3ncccc23)c(C)c1 | 
30 |  |  | 10 | Cc1cc(C)c(S(=O)(=O)N[C@@H](C)CNc2ccc3ncccc3c2)c(C)c1 | 
31 |  |  | 0.41 | Cc1ccc(S(=O)(=O)N[C@@H](C)COc2cccc3cnccc23)c(C)c1 | 
32 |  | 1.1 |  | Cc1cc(C)c(S(=O)(=O)N[C@@H](C)CNc2ccc(C)c3ncccc23)c(C)c1 | 
33 |  | 0.96 | 0.24 | Cc1cc(C)c(S(=O)(=O)N[C@@H](C)COc2cccc3ncccc23)c(C)c1 | 
34 | 0.002 | 0.0026 |  | Cc1cc(C)c(S(=O)(=O)N[C@@H](C)CNc2cccc3c2cnn3-c2cccnc2)c(C)c1 | 
35 |  | 2.2 | 0.16 | Cc1cc(C)c(S(=O)(=O)N[C@@H](C)CNc2cccc3nc(C)ccc23)c(C)c1 | 
36 |  | 0.76 |  | Cc1cc(C)c(S(=O)(=O)N[C@@H](C)CNc2cccc3[nH]ncc23)c(C)c1 | 
37 |  |  | 0.22 | Cc1cc(Cl)cc(Cl)c1S(=O)(=O)N[C@@H](C)COc1cccc2ncccc12 | 

From ChEMBL document CHEMBL3259563, “The discovery of potent and selective non-steroidal glucocorticoid receptor modulators, suitable for inhalation” (Bioorg Med Chem Lett, 2014)
